Each structure is given as a SMILES string. Bounds are passed on as bounds.

One data set deals with galectins. The conditions noted are these: cited from earlier work.
For another data set, the target named is Galectin-1 (Homo sapiens, UniProt P09382). In words: Fluorescence anisotropy assay, inhibition of galectin / fluorescein tagged saccharide probe interaction. The conditions noted are these: compound as inhibitor of probe binding. The method, then:
(§1) The affinity of Example 1-45 for galectins were determined by a fluorescence anisotropy assay where the compound was used as an inhibitor of the interaction between galectin and a fluorescein tagged saccharide probe as described Sörme, P., Kahl-Knutsson, B., Huflejt, M., Nilsson, U. J., and Leffler H. (2004) Fluorescence polarization as an analytical tool to evaluate galectin-ligand interactions. Anal. Biochem. 334: 36-47, (Sorme et al., 2004) and Monovalent interactions of Galectin-1 By Salomonsson, Emma; Larumbe, Amaia; Tejler, Johan; Tullberg, Erik; Rydberg, Hanna; Sundin, Anders; Khabut, Areej; Frejd, Torbjorn; Lobsanov, Yuri D.; Rini, James M.; et al, From Biochemistry (2010), 49(44), 9518-9532, (Salomonsson et al., 2010).
For orientation: Polarisation of emitted light reports the rotation of a fluorescent probe.

The target in a further data set is Galectin-3 (Homo sapiens, UniProt P17931). The description is as above. The conditions noted are these: compound as inhibitor of probe binding. The method, then: as §1
Sequence of Galectin-3 (P17931 whole entry, species assumed): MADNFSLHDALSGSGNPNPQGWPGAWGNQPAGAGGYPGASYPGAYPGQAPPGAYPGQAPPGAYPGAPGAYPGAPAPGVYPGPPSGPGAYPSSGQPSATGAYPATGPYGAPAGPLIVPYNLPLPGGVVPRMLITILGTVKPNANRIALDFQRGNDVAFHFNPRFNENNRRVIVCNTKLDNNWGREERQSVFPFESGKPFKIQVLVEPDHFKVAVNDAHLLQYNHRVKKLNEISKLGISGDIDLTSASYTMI
In a further data set the test system is MDCK-MDR1. In words: MDCK-MDR1 in vitro cell model of passage over Blood Brain Barrier. The class given is in vitro ADME. The conditions noted are these: MDCK-MDR1, result in words.
The test system of another data set is MDR1. The description is as above. The class given is in vitro ADME. The conditions noted are these: dog.
Data set [1] is described as follows: In vivo mouse pharmacokinetic experiment (plasma and brain). The procedure:
FIG. 1 compares the mean plasma levels after IV and PO administration
FIG. 2 compares the mean brain tissue concertation after IV and PO administration
The ratio between exposure of example 35 in brain compared to plasma is determined to AUCbrain/AUCplasma=0.19 after oral administration. (AUC=area under the curve)

[2] abbreviates: MDCK-MDR1, first column, headed A > B.
Setting [3] is: MDCK-MDR1, second column, also headed A > B.

Sequence of Galectin-1 (P09382 whole entry, species assumed): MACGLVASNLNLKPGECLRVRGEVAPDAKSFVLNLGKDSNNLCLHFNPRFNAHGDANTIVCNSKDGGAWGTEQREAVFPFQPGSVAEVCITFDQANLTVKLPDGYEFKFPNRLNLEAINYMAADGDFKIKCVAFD

In the case of `O=C[C@H](O)[C@@H](O)[C@@H](O)[C@H](O)CO` [D-galactose], the “affinity, times lower than lactose” value in the data set on galectins (relative to lactose) is 50-100 times.
For the molecule `OCC1O[C@H](Sc2cncc(Cl)c2)C(O)C(n2cc(-c3cc(F)c(Cl)c(F)c3)cn2)[C@H]1O` (stereo partly drawn) [Example 2, 5-Chloropyridin-3-yl 3-[4-(4-chloro-3,5-difluorophenyl)-1H-1,2-pyrazol-1-yl]-3-deoxy-1-thio-α-D-galactopyranoside], the Kd – broadly, a measure of binding affinity in units of concentration – at Galectin-1 turned out to be 27.6 µM; at Galectin-3, 0.02 µM. In addition, the “efflux and uptake in in vitro cell model of BBB passage” value (“efflux and uptake” for short) with MDCK-MDR1 was “low or no efflux and high uptake”. Further, the Papp (in general, a coefficient for how fast a substance crosses the barrier) in the data set on MDR1 (setting [2]) came to 250 nm/s; in the data set on MDR1 (setting [3]), 500 nm/s.
For the molecule `OCC1O[C@H](Sc2cncc(Cl)c2)C(O)C(n2cc(-c3cc(F)c(F)c(F)c3)cn2)[C@H]1O` (stereo partly drawn) [Example 3, 5-Chloropyridin-3-yl 3-deoxy-3-[4-(3,4,5-trifluorophenyl)-1H-1,2-pyrazol-1-yl]-1-thio-α-D-galactopyranoside], the Kd at Galectin-1 was found to be 12.8 µM; at Galectin-3 it was 0.028 µM. The “efflux and uptake” value with MDCK-MDR1 was “low or no efflux and high uptake”. For the same molecule, the Papp with MDR1 (setting [2]) was determined as 140 nm/s; with MDR1 (setting [3]), 390 nm/s.
Consider `OCC1O[C@H](Sc2cncc(Br)c2)C(O)C(n2cc(-c3cc(F)c(Cl)c(F)c3)cn2)[C@H]1O` (stereo partly drawn) [Example 6, 5-Bromopyridin-3-yl 3-[4-(4-chloro-3,5-difluorophenyl)-1H-1,2-pyrazol-1-yl]-3-deoxy-1-thio-α-D-galactopyranoside], for which the Kd amounted to 23 µM on Galectin-1 and 0.016 µM on Galectin-3. In the data set on MDCK-MDR1, the “efflux and uptake” value is “low or no efflux and high uptake”. Also, the Papp stood at 180 nm/s in the data set on MDR1 (setting [2]) and 520 nm/s in the data set with MDR1 (setting [3]).
Regarding `N#Cc1ncc(Cl)cc1S[C@H]1OC(CO)[C@H](O)C(n2cc(-c3cc(F)c(F)c(F)c3)cn2)C1O` (stereo partly drawn) [Example 12, 5-Chloro-2-cyanopyridin-3-yl 3-deoxy-3-[4-(3,4,5-trifluorophenyl)-1H-1,2-pyrazol-1-yl]-1-thio-α-D-galactopyranoside], the Kd came out at 8.2 µM at Galectin-1 and 0.021 µM at Galectin-3. In addition, the “efflux and uptake” value in the data set with MDCK-MDR1 was “low or no efflux and high uptake”. In addition, the Papp in the data set on MDR1 (setting [2]) amounted to 120 nm/s; with MDR1 (setting [3]), 510 nm/s.
Regarding `N#Cc1ncc(Br)cc1S[C@H]1OC(CO)[C@H](O)C(n2cc(-c3cc(F)c(F)c(F)c3)cn2)C1O` (stereo partly drawn) [Example 15, 5-Bromo-2-cyanopyridin-3-yl 3-deoxy-3-[4-(3,4,5-trifluorophenyl)-1H-1,2-pyrazol-1-yl]-1-thio-α-D-galactopyranoside], the Kd on Galectin-1 is 4.8 µM; at Galectin-3 it was 0.011 µM. Also, the “efflux and uptake” value in the data set on MDCK-MDR1 is “low or no efflux and high uptake”. For the same molecule, the Papp in the data set with MDR1 (setting [2]) is 120 nm/s; in the data set with MDR1 (setting [3]), 530 nm/s.
On to `OCC1O[C@H](Sc2cncc(Cl)c2)C(O)C(n2cc(-c3ccc(Cl)c(F)c3)cn2)[C@H]1O` (stereo partly drawn) [Example 17, 5-Chloropyridin-3-yl 3-[4-(4-chloro-3-fluorophenyl)-1H-1,2-pyrazol-1-yl]-3-deoxy-1-thio-α-D-galactopyranoside], for which the figures for the Kd on Galectin-1 and on Galectin-3 were 19.7 µM and 0.029 µM, respectively. In the data set on MDCK-MDR1, the “efflux and uptake” value was “low or no efflux and high uptake”. In addition, the figures for the Papp in the data set with MDR1 (setting [2]) and in the data set with MDR1 (setting [3]) were 280 nm/s and 490 nm/s, respectively.
Turning to `COC1C(n2cc(-c3cc(F)c(F)c(F)c3)cn2)[C@@H](O)C(CO)O[C@@H]1Sc1cncc(Cl)c1` (stereo partly drawn) [Example 32, 5-Chloropyridin-3-yl 3-deoxy-3-[4-(3,4,5-trifluorophenyl)-1H-1,2-pyrazol-1-yl]-2-O-methyl-1-thio-α-D-galactopyranoside], the Kd came out at 6.7 µM at Galectin-1 and 0.017 µM at Galectin-3. Besides, in the data set on MDCK-MDR1, the “efflux and uptake” value is “low or no efflux and high uptake”. The Papp stood at 300 nm/s in the data set on MDR1 (setting [2]) and 330 nm/s in the data set on MDR1 (setting [3]).
Turning to `COC1C(n2cc(-c3cc(F)c(F)c(F)c3)cn2)[C@@H](O)C(CO)O[C@@H]1Sc1cncc(Br)c1` (stereo partly drawn) [Example 33, 5-Bromopyridin-3-yl 3-deoxy-3-[4-(3,4,5-trifluorophenyl)-1H-1,2-pyrazol-1-yl]-2-O-methyl-1-thio-α-D-galactopyranoside], the values for the Kd at Galectin-1 and at Galectin-3 were 3.6 µM and 0.022 µM, respectively. Moreover, in the data set on MDCK-MDR1, the “efflux and uptake” value is “low or no efflux and high uptake”. Moreover, the Papp in the data set on MDR1 (setting [2]) is 340 nm/s; in the data set on MDR1 (setting [3]), 230 nm/s.
Regarding `C#Cc1cncc(S[C@H]2OC(CO)[C@H](O)C(n3cc(-c4cc(F)c(F)c(F)c4)cn3)C2OC)c1` (stereo partly drawn) [Example 34, 5-Ethynylpyridin-3-yl 3-deoxy-3-[4-(3,4,5-trifluorophenyl)-1H-1,2-pyrazol-1-yl]-2-O-methyl-1-thio-α-D-galactopyranoside], the values for the Kd at Galectin-1 and at Galectin-3 were 16.5 µM and 0.023 µM, respectively. For the same molecule, the “efflux and uptake” value in the data set with MDCK-MDR1 was “low or no efflux and high uptake”. In addition, the Papp in the data set with MDR1 (setting [2]) came to 350 nm/s; in the data set with MDR1 (setting [3]), 370 nm/s.
Turning to `COC1C(n2cc(-c3cc(F)c(F)c(F)c3)cn2)[C@@H](O)C(CO)O[C@@H]1Sc1cc(Cl)cnc1C#N` (stereo partly drawn) [Example 35, 5-Chloro-2-cyanopyridin-3-yl 3-deoxy-3-[4-(3,4,5-trifluorophenyl)-1H-1,2-pyrazol-1-yl]-2-O-methyl-1-thio-α-D-galactopyranoside], the results for the Kd on Galectin-1 and at Galectin-3 were 3.1 µM and 0.014 µM, respectively. Moreover, the “efflux and uptake” value with MDCK-MDR1 was “low or no efflux and high uptake”. The Papp in the data set on MDR1 (setting [2]) was found to be 230 nm/s; in the data set with MDR1 (setting [3]), 350 nm/s. Moreover, in data set [1] (IV 1 mg/kg and PO 10 mg/kg, FIG. 1), the systemic bioavailability entry is on record as “excellent systemic bioavailability”. In data set [1] (IV 1 mg/kg and PO 10 mg/kg, FIG. 2), the exposure in brain entry is recorded as “good exposure in brain”. In addition, the Kp in data set [1] (brain (relative to plasma), after oral administration (PO 10 mg/kg), read-out: AUCbrain/AUCplasma) is 0.19.
For the molecule `COC1C(n2ccc(-c3cc(F)c(F)c(F)c3)n2)[C@@H](O)C(CO)O[C@@H]1Sc1cncc(Cl)c1` (stereo partly drawn) [Example 38, 5-Chloropyridin-3-yl 3-deoxy-3-[3-(3,4,5-trifluorophenyl)-1H-1,2-pyrazol-1-yl]-2-O-methyl-1-thio-α-D-galactopyranoside], the Kd at Galectin-1 was determined as 51 µM; on Galectin-3, 0.45 µM.
As to `OC[C@H]1O[C@H](Sc2ccc(Cl)c(Cl)c2)[C@H](O)[C@@H](c2nc(-c3cc(F)c(F)c(F)c3)co2)[C@H]1O` [Example 39, 3,4-Dichlorophenyl 3-deoxy-3-[4-(3,4,5-trifluorophenyl)-oxazol-2-yl]-1-thio-α-D-galactopyranoside], the figures for the Kd on Galectin-1 and on Galectin-3 were greater than 100 µM and 0.3 µM, respectively.
In the case of `OC[C@H]1O[C@H](Sc2ccc(Cl)c(Cl)c2)[C@H](O)[C@@H](c2nc(-c3cc(F)c(F)c(F)c3)cs2)[C@H]1O` [Example 40, 3,4-Dichlorophenyl 3-deoxy-3-[4-(3,4,5-trifluorophenyl)-thiazol-2-yl]-1-thio-α-D-galactopyranoside], the Kd on Galectin-1 is greater than 100 µM; on Galectin-3, 2 µM.
As to `OC[C@H]1O[C@H](Sc2ccc(Cl)c(Cl)c2)[C@H](O)[C@@H](c2nnc(-c3cc(F)c(F)c(F)c3)o2)[C@H]1O` [Example 41, 3,4-Dichlorophenyl 3-deoxy-3-[5-(3,4,5-trifluorophenyl)-1,3,4-oxadiazol-2-yl]-1-thio-α-D-galactopyranoside], the Kd on Galectin-1 was greater than 100 µM; on Galectin-3, 1.2 µM.
With `COC1C(n2cc(-c3csc(O)n3)cn2)[C@@H](O)C(CO)O[C@@H]1Sc1ccc(Cl)c(Cl)c1` (stereo partly drawn) [Example 42, 3,4-Dichlorophenyl 3-deoxy-3-[4-(2-hydroxythiazol-4-yl)-1H-1,2-pyrazol-1-yl]-2-O-methyl-1-thio-α-D-galactopyranoside], the Kd stood at 0.18 µM at Galectin-1 and 63 µM on Galectin-3.
As for `COC1C(n2cc(-c3csc(N)n3)cn2)[C@@H](O)C(CO)O[C@@H]1Sc1ccc(Cl)c(Cl)c1` (stereo partly drawn) [Example 43, 3,4-Dichlorophenyl 3-[4-(2-aminothiazol-4-yl)-1H-1,2-pyrazol-1-yl]-3-deoxy-2-O-methyl-1-thio-α-D-galactopyranoside], the Kd at Galectin-1 stood at 2.1 µM; at Galectin-3, 11 µM.
For `COC1C(n2cc(-c3cc(F)c(Cl)c(F)c3)cn2)[C@@H](O)C(CO)O[C@@H]1Sc1cc(Cl)ccc1C#N` (stereo partly drawn) [Example 44, 5-Chloro-2-cyanophenyl 3-[4-(4-chloro-3,5-difluorophenyl)-1H-1,2-pyrazol-1-yl]-3-deoxy-2-O-methyl-1-thio-α-D-galactopyranoside], the Kd at Galectin-1 came out at 50 µM; on Galectin-3, 0.04 µM.
For `COC1C(n2cc(-c3cc(F)c(F)c(F)c3)cn2)[C@@H](O)C(CO)O[C@@H]1Sc1cc(Cl)ccc1C#N` (stereo partly drawn) [Example 45, 5-Chloro-2-cyanophenyl 3-deoxy-3-[4-(3,4,5-trifluorophenyl)-1H-1,2-pyrazol-1-yl]-2-O-methyl-1-thio-α-D-galactopyranoside], the Kd was 8.5 µM on Galectin-1 and 0.03 µM at Galectin-3.
For the molecule `OC[C@H]1O[C@@H](O[C@H]2[C@H](O)[C@@H](O)C(O)O[C@@H]2CO)[C@H](O)[C@@H](O)[C@H]1O` (some centres unmarked) [lactose], the Kd at galectins (reviewed by Leffler 2001, Leffler et al. 2004, read-out: Kd, all galectins) is 500 to 1000 µM.

Source of the values: patent US12410207B2, “Galactoside inhibitor of galectins” (GALECTO BIOTECH AB, priority 2019, dated 2025).
